# Reference: US7897602B2, “Indolinone compounds as kinase inhibitors” (Development Center for Biotechnology, priority 2009, dated 2011)
# Legend:
# Format in all cases: biochemical
# Flt3 kinase = target: T1, Flt3 kinase (Homo sapiens, UniProt P36888); test: Flt3 kinase assay (33P incorporation into Poly(Glu-Tyr)); settings: 100 nM test compound; read-out: Inhibition at 100 nM (%) Flt-3
# T1 construct: recombinant N-terminal 6×His-tagged Flt3 kinase domain construct expressed from baculovirus; 6xHis (N); made in house
# T1 sequence (P36888 610-943 limits assumed): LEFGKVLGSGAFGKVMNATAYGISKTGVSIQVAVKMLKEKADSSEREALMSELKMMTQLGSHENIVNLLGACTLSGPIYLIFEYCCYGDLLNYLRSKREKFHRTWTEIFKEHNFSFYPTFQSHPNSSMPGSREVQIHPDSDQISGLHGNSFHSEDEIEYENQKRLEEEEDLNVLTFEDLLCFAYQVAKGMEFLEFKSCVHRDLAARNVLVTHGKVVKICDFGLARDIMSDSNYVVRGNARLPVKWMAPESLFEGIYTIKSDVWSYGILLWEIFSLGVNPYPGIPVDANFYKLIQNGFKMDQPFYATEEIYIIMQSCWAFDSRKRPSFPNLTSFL
# Method in brief: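 Baculovirus-expressed His-tagged Flt3 kinase domain (5 ng) with Poly(Glu-Tyr) 4:1 substrate, 100 μM ATP plus [33P]-γ-ATP, in MOPS pH 7.0 buffer, 30 min at 30 °C. Compound tested at a single 100 nM concentration; filter-bound radioactivity counted and percent inhibition calculated relative to DMSO control.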
# VEGFR2 kinase = target: T2, VEGFR2 kinase (Homo sapiens, UniProt P35968); test: VEGFR2 kinase assay (33P incorporation into Poly(Glu-Tyr)); settings: 500 nM test compound; read-out: Inhibition at 500 nM (%) VEGFr-2
# T2 construct: recombinant N-terminal 6×His-tagged VEGFR2 kinase domain construct expressed by baculovirus; 6xHis (N); made in house
# Method in brief: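 Recombinant baculovirus-expressed N-terminal His6-tagged VEGFR2 kinase domain (6.25 ng) phosphorylated poly(Glu-Tyr) 4:1 with 100 μM ATP plus [33P]-γ-ATP in MOPS pH 7.0, 30 °C, 30 min. Test compound was at 500 nM (4% DMSO). Filter-retained radioactivity relative to DMSO control gave % inhibition.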
# PDGFR-β kinase = target: T3, PDGFR-β kinase (Homo sapiens, UniProt P09619); test: PDGFR-β kinase assay (33P incorporation into Poly(Glu-Tyr)); settings: 500 nM test compound
# T3 construct: recombinant N-terminal 6×His-tagged PDGFR-β kinase domain construct expressed by baculovirus; 6xHis (N); made in house
# Method in brief: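 His-tagged PDGFR-β kinase domain (55 ng) with Poly(Glu-Tyr) 4:1, 30 μM ATP plus [33P]-γ-ATP, pH 7.0 MnCl2 buffer, and 500 nM compound for 30 min at 30° C. Filter-bound radioactivity counted; inhibition computed relative to DMSO control.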
# T2 sequence (P35968 834-1162 limits assumed): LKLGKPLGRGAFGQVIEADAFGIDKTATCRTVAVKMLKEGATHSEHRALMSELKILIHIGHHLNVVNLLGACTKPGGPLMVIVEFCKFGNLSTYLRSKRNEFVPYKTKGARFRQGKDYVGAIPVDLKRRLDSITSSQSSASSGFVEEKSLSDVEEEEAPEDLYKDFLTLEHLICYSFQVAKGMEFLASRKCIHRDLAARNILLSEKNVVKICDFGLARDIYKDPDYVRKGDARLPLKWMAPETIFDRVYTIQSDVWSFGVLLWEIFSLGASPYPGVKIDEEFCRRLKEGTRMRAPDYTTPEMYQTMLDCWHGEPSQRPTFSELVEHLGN
# T3 sequence (P09619 600-962 limits assumed): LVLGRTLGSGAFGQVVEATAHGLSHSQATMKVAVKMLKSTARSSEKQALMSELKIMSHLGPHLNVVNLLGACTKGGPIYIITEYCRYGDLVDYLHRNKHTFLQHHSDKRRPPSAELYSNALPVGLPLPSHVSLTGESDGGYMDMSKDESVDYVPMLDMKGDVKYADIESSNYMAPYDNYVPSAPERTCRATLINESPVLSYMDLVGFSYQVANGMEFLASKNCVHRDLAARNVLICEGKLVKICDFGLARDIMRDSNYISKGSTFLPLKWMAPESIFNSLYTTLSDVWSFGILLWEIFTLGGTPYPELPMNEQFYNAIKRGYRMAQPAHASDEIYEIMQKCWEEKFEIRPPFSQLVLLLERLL
SMILES,inhibition at 0.1 µM (Flt3 kinase),inhibition at 0.5 µM (VEGFR2 kinase),inhibition at 0.5 µM (PDGFR-β kinase)
"O=C(O)CCc1c(/C=C2\C(=O)Nc3ccc(-c4cc5ccccc5s4)cc32)[nH]c2c1C(=O)CCC2 [DCB-70070, (Z)-5-(benzo[b]thiophen-2-yl)-3-((3-carboxyethyl-4-oxo-4,5,6,7-tetrahydro-1H-indol-2-yl)methylene)indolin-2-one]",13.3%,45.5%,18.7%
"O=C(O)CCc1c(/C=C2\C(=O)Nc3ccc(NS(=O)(=O)c4ccccc4)cc32)[nH]c2c1C(=O)CCCC2 [DCB-70147, (Z)-3-(4-oxo-2-((2-oxo-5-(phenylsulfonamido)indolin-3-ylidene)methyl)-1,4,5,6,7,8-hexahydrocyclohepta[b]pyrrol-3-yl)propanoic acid]",43.8%,71.3%,17.3%
"O=C(O)CCc1c(/C=C2\C(=O)Nc3ccc(S(=O)(=O)Cc4c(Cl)cccc4Cl)cc32)[nH]c2c1C(=O)CCC2 [DCB-70073, (Z)-5-(2,6-dichlorobenzylsulfonyl)-3-((3-carboxyethyl-4-oxo-4,5,6,7-tetrahydro-1H-indol-2-yl)methylene)indolin-2-one]",1.4%,71.3%,29.3%
"O=C(O)CCc1c(/C=C2\C(=O)Nc3cc(Br)ccc32)[nH]c2c1C(=O)CCC2 [DCB-70133, (Z)-3-(2-((6-bromo-2-oxoindolin-3-ylidene)methyl)-4-oxo-4,5,6,7-tetrahydro-1H-indol-3-yl)propanoic acid]",6.1%,54.2%,8.3%
"CCN(CC)C(=O)CCc1c(/C=C2\C(=O)Nc3ccc(F)cc32)[nH]c2c1C(=O)CCC2 [DCB-70124, (Z)-N,N-diethyl-3-(2-((5-fluoro-2-oxoindolin-3-ylidene)methyl)-4-oxo-4,5,6,7-tetrahydro-1H-indol-3-yl)propanamide]",88.6%,72.5%,64.3%
"C=CS(=O)(=O)c1ccc2c(c1)/C(=C/c1[nH]c3c(c1CCC(=O)O)C(=O)CCC3)C(=O)N2 [DCB-70115, (Z)-5-vinylsulfonyl-3-((3-carboxyethyl-4-oxo-4,5,6,7-tetrahydro-1H-indol-2-yl)methylene)indolin-2-one]",26.8%,52.2%,22%
